From patent US20090227606A1, “Methods for Preventing or Treating Acute and Chronic Pain” (priority 2006, published 2009)
Entries after “also recorded” stand apart in the source; their conditions may differ.

Experiments:
GLAST = test: DsRed-GLAST-positive puncta in mouse spinal cord dorsal horn; format: in vivo
Protocol: With these in vivo data collected, further experiments were performed in the transgenic mice to more clearly define the effects of propentofylline treatment on GLT-1 and GLAST in the spinal cord. As discussed above, following in vivo testing, mice were transcardially perfused and tissue was fixed with paraformaldehyde. Lumbar spinal cord sections were identified and post-fixed in paraformaldehyde. After one week in sucrose to prevent freeze fracture, spinal cord segments were frozen in dry ice, mounted and prepared with cryostat sectioning. Sections were then subjected to immunohistochemical analysis. […] In order to quantitate the relative number of eGFP (marker for GLT-1) or DsRed (marker for GLAST) puncta in each spinal cord dorsal horn, images using a fluorescence microscope were taken with a Q-Fire cooled camera (397 ms exposure). […] An observer blind to the treatment groups was used to count the relative number of GLT-1 or GLAST positive puncta in the ipsilateral (injured) dorsal horn versus the contralateral (non-injured) dorsal horn. […]
As described previously with rats, mice were transcardially perfused with 0.1 M PBS (phosphate-buffered saline), pH 7.4, followed by 4%-paraformaldehyde in PBS on day 12 post-L5 spinal nerve transection. […] The sections were examined with a fluorescence microscope, and images were captured with a Q-Fire cooled camera. […]

GLAST mRNA = test: Real Time RT-PCR of cultured astrocytes, GLAST mRNA; format: cell-based, rat
Protocol: After approximately 14 days (2 days after subplating into plates, DIV 14) astrocytes had formed a confluent monolayer. […] Phase contrast microscopy was then carried out in order to assess the morphology of cells after the various treatments. Length of astrocyte processes was quantified by measuring all processes in 2-3 phase contrast images/group by an independent observer, blinded to the treatment groups using Image J v1.34s (National Institutes of Health, Bethesda, Md.).
Total RNA was isolated from astrocyte cultures using the Qiagen RNeasy mini-kit (Qiagen Inc., Valencia, Calif.) according to the manufacturer's protocol for isolation of total RNA from animal cells. Reverse transcription (RT) was carried out using the high-capacity cDNA archive kit (Applied Biosystems, Foster City, Calif.) according to the vendor's protocol. Real-time RT-PCR reactions were carried out in a total reaction volume of 25 μL containing a final concentration of 1.5 U Platinum Taq DNA polymerase (Invitrogen Corporation, Carlsbad, Calif.); 20 mM Tris HCl (pH 8.4); 50 mM KCl; 3 mM MgCl2; 200 μM dGTP, dCTP, and dATP; 400 μM dUTP and 1 U of UDG (uracyl DNA glycosylase); 900 nM of forward and reverse primers; 300 nM Taqman probe; and 5 μL of cDNA (50 ng) from the RT step. The iCycler™ Multicolor Real-Time PCR detection system (Bio-Rad Laboratories, Hercules, Calif.) was used to quantify PCR product. The fluorescence and threshold values (CT) obtained were used to compare the relative amount of target mRNA in experimental groups to those of controls using the 2^−ΔΔC^T method (Livak, K. J. and T. D. Schmittgen. 2001. Methods 25:402-408). Each experiment was run twice and samples were run in duplicate. For each sample, the mean CT value for the control gene (GAPDH) was then subtracted from the mean CT value for the gene of interest (GLT-1, GLAST) to obtain a ΔCT value. […] The relative fold change from control was then expressed by calculation of 2^−ΔΔC^T for each sample and the results are expressed as the group mean fold change±SEM.

GLT-1 = test: Immunocytochemistry of cultured astrocytes, GLT-1 staining; format: cell-based, rat; conditions: treated astrocytes
Protocol: Primary astrocyte-enriched cultures were plated onto sterile 18 mm glass coverslips. After three washes in PBS, cells were permeabilized in 5% glacial acetic acid/95% ethanol (acid-alcohol) for 10 minutes. After washing, cells were incubated in a 1% normal goat serum for 30 minutes and then overnight at 4° C. in primary mouse anti-GFAP (1:500), rabbit anti-GLT-1 (1:500) or guinea pig anti-GLAST (1:2000). The following day, cells were washed and then incubated for 2 hours at room temperature with goat anti-mouse Alexa Fluor™-555 (Invitrogen Corporation, Carlsbad, Calif.) goat anti-guinea pig Alexa Fluor™-488 (Invitrogen Corporation, Carlsbad, Calif.) or goat anti-rabbit Alexa Fluor™-488 (Invitrogen Corporation, Carlsbad, Calif.; all at 1:250). Finally, cells were post-fixed in acid-alcohol and mounted with Vectashield (Vector Labs, Burlingame, Calif.) containing 4′,6-diamidino-2-phenylindole dihydrochloride hydrate (DAPI, Sigma Chemical Co., St Louis, Mo.), in order to visualize cell nuclei. The sections were examined with a fluorescence microscope, and images were captured with a Q-Fire cooled camera (Olympus, Melville, N.Y.). Confocal microscopy was also performed using a Zeiss LSM 510 Meta confocal microscope (Carl Zeiss AG, Oberkochen, Germany). Merged color images were processed using Adobe Photoshop 7.0 (Adobe Systems, San Jose, Calif.).

## CCCn1cnc2c1c(=O)n(CCCCC(C)=O)c(=O)n2C [propentofylline]
GLAST; L5/propentofylline vs L5/saline group, day 12
  DsRed-GLAST-positive puncta in injured mice: significantly enhanced the number of DsRed-GLAST-positive puncta; also recorded: increased the levels back to that seen in the contralateral side
GLAST; sham/propentofylline group
  DsRed-GLAST expression in sham mice: unaffected
GLAST mRNA; both days 3 and 7
  increase in GLAST mRNA: 1.5-2 fold
GLAST mRNA; propentofylline 10, 100, 1000 μM, db-cAMP 250 μM, relative to GAPDH
  GLAST mRNA level, in words: enhancement of GLT-1 and GLAST mRNA levels in a dose-dependent manner; also recorded: dose-dependently induced GLT-1 and GLAST at the mRNA level
GLT-1
  GLT-1 staining: concomitant increase in GLT-1 staining
